Test results taken from patent US10183014B2, “Ocular formulations for drug-delivery and protection of the anterior segment of the eye” (PanOptica, Inc., priority 2014, dated 2019).
Several values for one entry are separate records, joined by “and”; a condition that tells them apart may be missing. Equal values may be shown once. Read-outs that look alike come from different tables or passages of the source.

Tests used:
[1] = Ocular pharmacokinetics of formulations, Example 20-4; assay type: in vivo, Dutch Belted rabbits; details: Dutch Belted, rabbit, topical, PSD 30 μm/XL, HPMC 0.08%, glycerol 2.5%, HEC 0.2%, VitK3 1 μM, pH ≈7.5, QD, Day 5, 1 hr post dose
Experimental: The study design (Table 18-1) consisted of forty-nine (49) Dutch Belted rabbits, each receiving a 30 μL bilateral topical ocular dose.
Ocular sampling occurred one hour following the first daily dose on Day 5 for all groups. Whole blood samples using K2EDTA as an anticoagulant were collected from all animals on Day 5, 1 hour post dose. The whole blood was placed on ice until samples were spun in a centrifuge to separate the plasma. Aqueous humor, conjunctiva, cornea, central retina, peripheral retina, central choroid, and peripheral choroid samples were collected following necropsy. Samples were then frozen at −70° C. or lower. For all Groups 1-16, plasma, central retina, central choroid, and cornea samples were assayed for PAN-90806.

[2] = Particle size distribution by laser diffraction light scattering; assay type: physicochemical; details: API form Freebase
Experimental: Particle size distribution can be analyzed using laser diffraction light scattering, e.g., with a Horiba LA-950 V2. Generic assumptions are made in setting conditions and the refractive index value. The distributions are volume based. Sample density is adjusted to a generic range of percent transmission on the blue LED light source. A small sample cell (filled with water) can be used rather than the flow through cell, to minimize sample quantity.
Particle size distribution was analyzed using laser diffraction light scattering with a Horiba LA-950 V2. Generic assumptions were made in setting conditions and the refractive index value. The distributions were volume based. Sample density was adjusted to a generic range of percent transmission on the blue LED light source. A small sample cell (filled with water) was used rather than the flow through cell, to minimize sample quantity.

EGFR = target: T1, EGFR (Homo sapiens, UniProt P00533); test: EGFR tyrosine phosphorylation assay in hTCEpi cells with a second active agent; assay type: cell-based; details: vitamin K 50 μM, nicotinic acid 10 μM or nicotinamide 10 μM, 4 hours pre-treatment; EGF 50 ng/ml
T1 construct: endogenous in cells; host or cells: hTCEpi (immortalized corneal epithelial cells)
T1 sequence (P00533 25-1210): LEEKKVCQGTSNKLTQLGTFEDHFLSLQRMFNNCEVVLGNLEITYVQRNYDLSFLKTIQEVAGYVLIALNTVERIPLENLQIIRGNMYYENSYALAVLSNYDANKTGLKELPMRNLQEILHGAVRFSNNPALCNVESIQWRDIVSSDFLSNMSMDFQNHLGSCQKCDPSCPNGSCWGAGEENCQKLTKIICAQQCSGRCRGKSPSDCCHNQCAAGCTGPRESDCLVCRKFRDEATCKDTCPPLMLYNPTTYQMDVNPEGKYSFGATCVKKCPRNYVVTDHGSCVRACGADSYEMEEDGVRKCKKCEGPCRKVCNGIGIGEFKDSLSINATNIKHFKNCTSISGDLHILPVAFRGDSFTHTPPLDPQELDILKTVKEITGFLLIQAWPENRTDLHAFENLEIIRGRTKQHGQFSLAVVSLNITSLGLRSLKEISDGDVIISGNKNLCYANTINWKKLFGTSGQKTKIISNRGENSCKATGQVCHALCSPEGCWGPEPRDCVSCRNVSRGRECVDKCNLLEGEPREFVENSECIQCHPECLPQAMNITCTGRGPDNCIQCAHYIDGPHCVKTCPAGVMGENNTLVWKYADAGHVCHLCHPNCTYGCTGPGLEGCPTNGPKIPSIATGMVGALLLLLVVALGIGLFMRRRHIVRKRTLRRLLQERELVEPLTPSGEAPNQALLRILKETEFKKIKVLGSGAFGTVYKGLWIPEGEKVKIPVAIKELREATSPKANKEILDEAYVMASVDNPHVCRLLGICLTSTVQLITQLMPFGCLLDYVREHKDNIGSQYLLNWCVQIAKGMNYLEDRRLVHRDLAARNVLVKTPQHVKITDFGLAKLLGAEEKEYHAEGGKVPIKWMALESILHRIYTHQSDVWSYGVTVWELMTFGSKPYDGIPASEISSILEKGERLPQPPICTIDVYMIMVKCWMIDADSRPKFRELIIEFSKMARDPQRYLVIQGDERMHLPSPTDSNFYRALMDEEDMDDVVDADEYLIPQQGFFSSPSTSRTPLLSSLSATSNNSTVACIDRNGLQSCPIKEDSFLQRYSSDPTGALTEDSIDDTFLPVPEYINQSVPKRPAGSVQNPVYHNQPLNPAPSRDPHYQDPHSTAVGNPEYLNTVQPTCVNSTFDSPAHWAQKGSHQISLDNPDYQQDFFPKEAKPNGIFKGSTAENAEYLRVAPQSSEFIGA
Experimental: An EGFR tyrosine assay in corneal epithelial cells is run to determine if Vitamin K or nicotinic acid/nicotinamide can overcome inhibition of EGFR and if there is an increase in EGFR activity. […] Cells are harvested cells and immunoblotted for determination of phosphorylated EGFR (tyrosine 1068 and tyrosine 1045) and total EGFR concentration which was used to determine receptor activity (IC50).
The cells were then incubated with EGF (50 ng/ml) for 15 minutes. Cells were harvested and cell lysates were immunoblotted for determination of phosphorylated EGFR (tyrosine 1068 and tyrosine 1045) and total EGFR concentration.

[3] = excipient PVP K-29/32, roller speed high, media size 0.8 mm, particles under storage 1 day, RT
[4] = excipient PVP K-29/32, roller speed high, media size 0.8 mm, particles under storage 15 days, RT
[5] = excipient Pluronic F-127, milling not given, particles under storage 6 days, 40° C.
[6] = excipient Pluronic F-127, roller speed high, media size 0.8 mm, particles under storage 3 days, RT
[7] = excipient Pluronic F-127, roller speed low, media size 3 mm
[8] = excipient Tween 80, milling not given
[9] = excipient Tween 80, roller speed high, media size 0.8 mm, particles under storage 28 days, RT

SMILES: NC(=O)c1c(OCc2c(F)cc(Br)cc2F)nsc1NC(=O)NCCCCN1CCCC1 [Formula II]
- concentration at 1 h ([1]; central choroid, 4 mg/mL (30 μL per eye, bilateral), Group 4: 4 mg/mL FB suspension, read-out: Central Choroid concentration): 203 nM
- concentration at 1 h ([1]; central choroid, Group 5: 6 mg/mL FB suspension, read-out: Central Choroid concentration): 203 nM
- concentration at 1 h ([1]; central retina, 4 mg/mL (30 μL per eye, bilateral), Group 4: 4 mg/mL FB suspension, read-out: Central Retina concentration): 38.4 nM
- concentration at 1 h ([1]; central retina, Group 5: 6 mg/mL FB suspension, read-out: Central Retina concentration): 47.9 nM
- concentration at 1 h ([1]; cornea, 4 mg/mL (30 μL per eye, bilateral), Group 4: 4 mg/mL FB suspension, read-out: Cornea concentration): 21300 nM
- concentration at 1 h ([1]; cornea, Group 5: 6 mg/mL FB suspension, read-out: Cornea concentration): 23800 nM
- concentration at 1 h ([1]; plasma, 4 mg/mL (30 μL per eye, bilateral), Group 4: 4 mg/mL FB suspension, read-out: Plasma concentration): 3.27 nM
- concentration at 1 h ([1]; plasma, Group 5: 6 mg/mL FB suspension, read-out: Plasma concentration): 3.91 nM
- PSD (Particle Size Distribution) Mean [2, 3]: ~210 nm
- PSD (Particle Size Distribution) Median [2, 3]: ~150 nm
- PSD (Particle Size Distribution) Mean [2, 4]: ~170 nm
- PSD (Particle Size Distribution) Median [2, 4]: ~130 nm
- PSD (Particle Size Distribution) Mean [2, 5]: ~3100 nm
- PSD (Particle Size Distribution) Median [2, 5]: ~2500 nm
- PSD (Particle Size Distribution) Mean [2, 6]: ~130 nm
- PSD (Particle Size Distribution) Median [2, 6]: ~120 nm
- PSD (Particle Size Distribution) Mean [2, 7]: ~8100 nm and ~4700 nm
- PSD (Particle Size Distribution) Median [2, 7]: ~6200 nm and ~4400 nm
- PSD (Particle Size Distribution) Mean [2, 8]: ~2000 nm
- PSD (Particle Size Distribution) Median [2, 8]: ~300 nm
- PSD (Particle Size Distribution) Mean [2, 9]: ~370 nm
- PSD (Particle Size Distribution) Median [2, 9]: ~160 nm
- PSD (Particle Size Distribution) Median ([2]; excipient Tween 80, roller speed low, media size 3 mm): ~5500 nm and ~3900 nm and ~3700 nm and ~3500 nm

SMILES: NC(=O)c1cccnc1 [nicotinamide]
- Effect on Formula I or II compound-mediated EGFR inhibition (EGFR): overcome

SMILES: O=C(O)c1cccnc1 [nicotinic acid]
- Effect on Formula I or II compound-mediated EGFR inhibition (EGFR): overcome
